Measurements taken from patent US9035133B2, “Herbicide-resistant sunflower plants and methods of use” (priority 2006, dated 2015).

How the values were obtained:
Assay type in all cases: in vivo, Helianthus annuus
MUT31 sunflower plants = test: Greenhouse factorial experiment, herbicide damage score (imazamox with or without malathion); conditions: 7 days after spraying
Procedure: (§1) FIG. 1 is a graphical representation of the results of a 2×3×2 factorial experiment to the test the effects of sunflower genotype (RHA266 or MUT31), herbicide dose (0, 0.25X, and, 0.50X; where X=50 g a.i./ha imazamox), and malathion (0 or 1000 g a.i./ha). The sunflower plants were at the 3-4 leaf growth stage at time of malathion and herbicide spraying. Malathion was sprayed on the plants 30 minutes prior to the imazamox spraying. The sunflower plants were evaluated at 7 days after herbicide spraying to determine damage scores. Additional details are provided below in Example 3.
(§2) To evaluate the detoxification ability of MUT31 sunflower plants, an experiment was conducted in the greenhouse. The objective of the experiment was to determine if the imazamox tolerance of MUT31 plants is associated with detoxification mechanism that is mediated by a P450 monooxygenase enzyme (referred to herein as “P450 enzyme”). […] Thus, plants comprising enhanced herbicide tolerance that is due to an altered P450 enzyme are expected to become less tolerant or susceptible to the herbicide when malthion is applied to the plants before they are treated with the herbicide.
(§3) A factorial experiment with three factors: genotypes (MUT31 and RHA266), herbicide dose (Control, 0.25X , and 0.50X; where X=50 g ai/ha imazamox) and malathion (with or without malathion) was arranged in a randomized split-split plot block design. Imazamox (SWEEPER) was sprayed at the 3-4 leaf growth stage. The P450 inhibitor malathion was sprayed at a rate of 1000 g ai/ha 30 minutes prior to herbicide spraying.

RHA266 sunflower plants = test: as above; conditions: 7 days after spraying
Procedure: as §1, §2, §3

[1] = test system: sunflower Entry 1, IMI Restorer, A205V homo; test: Field trial, phytotoxicity rating (% crop injury); conditions: 21 DAT
Procedure: (§4) A field trial was conducted to compare the herbicide tolerance of sunflower hybrids carrying the MUT31 trait and the A205V mutation in a sunflower AHASL gene (A205V/A205V). A sunflower AHASL gene with the A205V mutation encodes a AHASL protein which has a valine at amino acid that corresponds to amino acid position 205 in the Arabidopsis thaliana AHASL protein. The amino acid at the same position in a wild-type sunflower AHASL protein is alanine. In the amino acid sequence of the sunflower AHASL protein, this alanine-to-valine amino acid substitution is at amino acid position 190. By convention, the sites of amino acid substitutions that are known to give rise to herbicide resistance in plant AHASL proteins are typically referred to by the position of the substitution in the amino acid sequence of the Arabidopsis AHASL protein.
(§5) Seed from each entry was produced under optimum seed production conditions in South America in 2005/2006. The field trial was conducted at one location in North Dakota, USA in 2006. The entries were organized in a randomized complete block using a split plot design consisting of 3 replications for each treatment combination. Factor A was the herbicide treatment, and factor B was the sunflower entry. The plot size was 4 rows×12 ft and the seeding rate was consistent with local agronomic practices. The spray volume was 10 gallons per acre (GPA) (or 100 liters/ha) for a backpack sprayer or 20 GPA (or 200 liters/ha) for a tractor mounted boom. The herbicide treatments were applied at the 2-4 leaf growth stage.
(§6) Phytotoxicity ratings were assessed at 7 days and 21 days following herbicide application. Phytotoxicity was recorded as the amount of plant damage (in percent), where a rating of ‘0’ indicated no damage to the plants in the plot relative to the untreated plot. A rating of ‘100’ indicated complete necrosis (death) of the plants in the plot relative to the untreated plot.
(§7) The data was subjected to an ANOVA analysis and the means from the 3 repetitions are presented in Table 8 (phytotoxicity at 21 days post-treatment).

[2] = test system: sunflower Entry 2, IMI cms × IMI restorer, A205V homo; test: Field trial, phytotoxicity rating (% crop injury); conditions: 21 DAT
Procedure: as §4, §5, §6, §7

[3] = test system: sunflower Entry 8, MUT31 Restorer, MUT31 homo; test: Field trial, phytotoxicity rating (% crop injury); conditions: 21 DAT
Procedure: as §4, §5, §6, §7

MUT31 = test: Previous studies (data not shown), crop injury
[4] = test system: sunflower Entry 5, A837 cms × IMI restorer, A205V hetero; test: Field trial, phytotoxicity rating (% crop injury); conditions: 50 g ai/ha imazamox + 0.25% (v/v) NIS, 21 DAT
Procedure: as §4, §5, §6, §7

[5] = test system: sunflower Entry 3, WT × IMI restorer, A205V hetero; test: Field trial, phytotoxicity rating (% crop injury); conditions: 50 g ai/ha imazamox + 0.25% (v/v) NIS, 21 DAT
Procedure: as §4, §5, §6, §7

[6] = test system: sunflower Entry 6, IMI cms × MUT31 restorer, A205V/MUT31 hetero; test: Field trial, phytotoxicity rating (% crop injury); conditions: 21 DAT
Procedure: as §4, §5, §6, §7

[7] = herbicide dose 0× (control), malathion 1000 g ai/ha alone
[8] = herbicide dose 0× (control), malathion 1000 g ai/ha alone, listed as Malathion
[9] = 160 g ai/ha imazapyr + 0.25% (v/v) NIS
[10] = 100 g ai/ha imazamox + 0.25% (v/v) NIS
[11] = 0.25× imazamox (X=50 g ai/ha), malathion 1000 g ai/ha 30 minutes prior
[12] = 0.25× imazamox (X=50 g ai/ha), no malathion
[13] = 0.50× imazamox (X=50 g ai/ha), malathion 1000 g ai/ha 30 minutes prior
[14] = 0.50× imazamox (X=50 g ai/ha), no malathion

Question: How did the “Mean Herbicide Damage Score” value (MUT31 sunflower plants; [7]) turn out when `CCOC(=O)CC(SP(=S)(OC)OC)C(=O)OCC` (stereo not drawn) [malathion, diethyl-dimethoxythiophosphorylthio-succinate] was run?
Answer: no effect

Question: And the “Mean Herbicide Damage Score” value (MUT31 sunflower plants; [8])?
Answer: 0.00%

Question: And the “Mean Herbicide Damage Score” value (RHA266 sunflower plants; [7])?
Answer: no effect

Question: What about the “Mean Herbicide Damage Score” value (RHA266 sunflower plants; [8]) of the same molecule?
Answer: 0.00%

Question: With `CC(C)C1(C)N=C(c2ncccc2C(=O)O)NC1=O` (stereo not drawn) [imazapyr] as the molecule, how does the “Phytotoxicity Rating (% Crop Injury)” value [1, 9] read?
Answer: 6.67%

Question: And the “Phytotoxicity Rating (% Crop Injury)” value [2, 9]?
Answer: 3.33%

Question: And the “Phytotoxicity Rating (% Crop Injury)” value ([3]; 80 g ai/ha imazapyr + 0.25% (v/v) NIS)?
Answer: 88.33%

Question: And the crop injury (MUT31; 100 g ai of imazapyr per hectare)?
Answer: 100%

Question: With `COCc1cnc(C2=NC(C)(C(C)C)C(=O)N2)c(C(=O)O)c1` (stereo not drawn) [imazamox] as the molecule, how does the “Phytotoxicity Rating (% Crop Injury)” value [4] read?
Answer: 3.33%

Question: And the “Phytotoxicity Rating (% Crop Injury)” value [1, 10]?
Answer: 6.67%

Question: And the “Phytotoxicity Rating (% Crop Injury)” value [5]?
Answer: 6.67%

Question: What about the “Phytotoxicity Rating (% Crop Injury)” value [2, 10] of the same molecule?
Answer: 3.33%

Question: And the “Phytotoxicity Rating (% Crop Injury)” value ([6]; 50 g ai/ha imazamox + 0.25% (v/v) NIS)?
Answer: 1.67%

Question: And the “Phytotoxicity Rating (% Crop Injury)” value ([6]; 200 g ai/ha imazamox + 0.25% (v/v) NIS)?
Answer: 43%

Question: What about the “Phytotoxicity Rating (% Crop Injury)” value ([3]; 37.5 g ai/ha imazamox + 0.25% (v/v) NIS) of the same molecule?
Answer: 47%

Question: And the crop injury (MUT31; 75 g ai of imazamox per hectare)?
Answer: 100%

Question: And the “Mean Herbicide Damage Score” value (MUT31 sunflower plants; [11])?
Answer: 30.35%

Question: And the “Mean Herbicide Damage Score” value (MUT31 sunflower plants; [12])?
Answer: 9.50%

Question: What about the “Mean Herbicide Damage Score” value (MUT31 sunflower plants; [13]) of the same molecule?
Answer: 40.31%

Question: And the “Mean Herbicide Damage Score” value (MUT31 sunflower plants; [14])?
Answer: 20.13%

Question: What about the “Mean Herbicide Damage Score” value (RHA266 sunflower plants; [11]) of the same molecule?
Answer: 45.30%

Question: What about the “Mean Herbicide Damage Score” value (RHA266 sunflower plants; [12]) of the same molecule?
Answer: 27.95%

Question: And the “Mean Herbicide Damage Score” value (RHA266 sunflower plants; [13])?
Answer: 45.50%

Question: And the “Mean Herbicide Damage Score” value (RHA266 sunflower plants; [14])?
Answer: 42.35%
